Assay results from publication PMC8155809 (The Journal of General Physiology, 2021).

Assays:
WT TREK-2 = target: T1, WT TREK-2 (Homo sapiens, UniProt P57789); experiment: Single-channel recordings of WT TREK-2 in excised patches from HEK293 cells; type: cell-based
T1 construct: full-length WT TREK-2 channels, we examined its effects on the mean open time of TREK-2 channels expressed in HEK293 cells; expressed in transfected cells; host or cells: HEK293 cells, transient transfection with pcDNA3
T1 sequence (P57789 1-543 isoform P57789-4): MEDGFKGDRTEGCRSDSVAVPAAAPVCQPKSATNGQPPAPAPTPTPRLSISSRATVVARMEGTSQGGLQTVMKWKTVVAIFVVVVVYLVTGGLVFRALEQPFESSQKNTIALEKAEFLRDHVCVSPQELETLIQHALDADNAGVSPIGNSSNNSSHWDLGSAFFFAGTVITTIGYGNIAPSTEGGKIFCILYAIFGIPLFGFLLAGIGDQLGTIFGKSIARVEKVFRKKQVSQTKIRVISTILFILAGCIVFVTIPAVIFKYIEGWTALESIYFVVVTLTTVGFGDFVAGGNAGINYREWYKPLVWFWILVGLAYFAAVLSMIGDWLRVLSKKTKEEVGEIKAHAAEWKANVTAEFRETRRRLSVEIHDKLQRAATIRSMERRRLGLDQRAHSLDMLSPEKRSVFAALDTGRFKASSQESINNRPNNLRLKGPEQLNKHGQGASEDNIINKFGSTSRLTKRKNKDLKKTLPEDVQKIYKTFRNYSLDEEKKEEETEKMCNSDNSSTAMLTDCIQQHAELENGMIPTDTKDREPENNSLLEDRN
Experimental: (§1) Full-length human TREK-2 isoform 3 (NCBI accession no. NP_612191) was used throughout this study and was subcloned into the pFAW vector for expression in oocytes. The truncated construct used to generate protein (TREK-2ΔN/ΔC) is identical to that used previously to obtain crystal structures ([Dong et al., 2015]); it contains a deletion of 71 residues at the N terminus and 213 residues at the C terminus. […] Desamino chloro-fluoxetine (Toronto Research Chemicals) was dissolved in chloroform and diluted to working concentrations on the day of experimenting (maximum final concentration was 0.01%).
HEK293 cells were cultured in DMEM (Sigma) containing 10% FBS (Life Technologies), 3 mM glucose, and 2 mM glutamine at 37°C in a humidified atmosphere of 5% CO2/[…] at 37°C. Cells were transiently transfected with 0.2 µg channel pcDNA3 per dish using FuGENE 6 according to the manufacturer’s instructions. Cells were used 1–2 d after transfection.
(§2) For currents recorded in Xenopus laevis oocytes, giant-patch electrodes were pulled from thick-walled borosilicate glass and polished to give pipette resistances of ∼0.3–0.5 MΩ when filled with patch solution. Pipette solution contained (in mM) 116 NMDG, 4 KCl, 1 MgCl2, 3.6 CaCl2, and 10 HEPES (pH 7.4), while the bath solution contained (in mM) 120 KCl, 1 NaCl, 2 EGTA, and 10 HEPES (pH 7.3). Patches were perfused via a gravity-flow perfusion system and a HEKA EPC 10 USB single computer–controlled amplifier was used and currents recorded using a Patchmaster v2 × 90.5 (HEKA Electronics), filtered at 1 kHz, and sampled at 10 kHz. For currents recorded in HEK293 cells, patch electrodes were pulled from thick-walled borosilicate glass and polished to give pipette resistances of ∼3–5 MΩ when filled with patch solution. The currents were recorded from excised patches with both intracellular and extracellular solution containing 200 mM KCl and 10 mM HEPES (pH 6.0 with KOH). Patches were perfused via a gravity-flow perfusion system. Data were acquired with pClamp and recorded using an Axopatch 200B (Molecular Devices), filtered at 5 kHz, and sampled at 200 kHz. Single-channel currents were analyzed in an identical manner to those obtained from bilayers (see above).

human TREK-2 = target: T2, human TREK-2 (Homo sapiens, UniProt P57789); experiment: Macroscopic TREK-2 currents in giant excised patches from Xenopus oocytes; type: cell-based
T2 construct: expressed in transfected cells; host or cells: Xenopus laevis oocytes injected with in vitro transcribed mRNA (pFAW vector)
T2 sequence (P57789 1-543 isoform P57789-4): T1 sequence (P57789 1-543 isoform P57789-4)
Experimental: as §1
Oocytes were prepared for injection of mRNA by collagenase digestion followed by manual defolliculation and stored in ND96 solution that contained (in mM) 96 NaCl, 2 KCl, 1.8 CaCl2, 1 MgCl2, and 10 HEPES (pH 7.4) and was supplemented with 2.5 mM sodium pyruvate 50 µg/ml gentamycin, 50 µg/ml tetracycline, 50 µg/ml ciprofloxacin, and 100 µg/ml amikacin. Cells were injected with 1–4 ng mRNA up to 4 d after isolation. In vitro transcription of mRNA was done using the Amplicap SP6 Kit (Cambio). Experiments were performed 12–24 h after injection at room temperature (22°C unless otherwise indicated). For measurement and comparison of basal whole-cell currents, oocytes were injected with 4 ng RNA and recorded exactly 24 h after injection.
as §2
The macroscopic concentration–inhibition relationships in Figs. 1 and 2 were fitted with a modified Hill equation:
I/I0=a+1−a/1+([X]/IC50)^h, (1) where I and IO are the currents in the presence and absence of inhibitor, respectively, [X] is the concentration of inhibitor, IC50 is the inhibitor concentration at which the inhibition is half maximal, h is the Hill coefficient, and a is the fraction of unblockable current; a = 0, except where indicated in the legend to Fig. 1.
The macroscopic concentration–activation relationships in Fig. 1 E were fitted with a modified Hill equation: I/I0=a+(1−a)([X]/IC50)^h/1+([X]/IC50)^h, (2) where I and IO are the currents in the presence and absence of agonist, respectively, [X] is the concentration of agonist, IC50 is the agonist concentration at which the activation is half maximal, h is the Hill coefficient, and a is the fraction of initial current.

CS(=O)(=O)Nc1ccc(C(=O)NCc2ccc(Cl)cc2Cl)cc1 [ML335]
mean Po (WT TREK-2; 100 µM ML335, absence of NFx, −40 mV): 0.69 ± 0.2

c1ccc(-c2nn[nH]n2)c(Nc2cccc3c2CCCC3)c1 [BL1249]
h (Hill coefficient), BL1249 activation (human TREK-2; BL1249 on its own): 1.9
h (Hill coefficient), BL1249 activation (human TREK-2; in the presence of NFx): 1.4

FC(F)(F)c1ccc(O[C@@H](CCCl)c2ccccc2)cc1 [desamino chloro-fluoxetine, Desamino chloro-fluoxetine]
PO (single-channel open probability) (WT TREK-2; 10 µM, −40 mV): 0.04
reduction in γ (single-channel current amplitude) (WT TREK-2; 10 µM, −40 mV (Fig. 6B)): 15 ± 5%
reduction of channel Po (WT TREK-2; 10 µM, −40 mV (Fig. 6B)): 75 ± 0.05%
